# Data as given in patent US9359298B2, “Cajanine structure analogous compound, preparation method and use” (INSTITUTE OF MEDICINAL BIOTECHNOLOGY, CHINESE ACADEMY OF …, priority 2011, dated 2016).
# Where two headings read alike, the source gives them in different places.
# Assays:
# Assay type in all cases: cell-based
# [1] = test system: Influenza A virus (hanfang359/95); experiment: Determination of anti-influenza virus activity (CPE in MDCK cells); conditions: for IC50: Influenza A virus, MDCK, 36 h; for anti-influenza virus activities compared with the lead compound cajanine: statement in words
# Coxsackie virus B6 = experiment: Coxsackie virus activity assay (CPE in Vero cells); conditions: Vero
# HCV = experiment: Anti-hepatitis C virus (HCV) activity assay (HCV RNA in Huh7.5 cells); conditions: for EC50: Hepatitis C virus, Huh7.5, 72 h, read-out: HCV EC50; for anti-HCV viral activity: statement in words
# Protocol: Inoculate Huh7.5 cells into 96-well plates to a density of 3×10^4 cells/cm^2, culture for 24h, infect the cells with 45 IU/cell HCV supernatant, meanwhile, add drug solutions or solvent control for treatment.
# HIV-1 III B virus = experiment: Anti-HIV activity assay (P24 antigen in MT-4 cells); conditions: for IC50: Human immunodeficiency virus 1, MT4, 96 h, read-out: HIV IC50; for anti-HIV viral activity: statement in words
# PC12 cells [2] = experiment: Neuroprotective activity assay, serum-deprived injury to PC12 cells (MTT); conditions: for viability at 10 µM: Rattus norvegicus, PC-12, 48 h, read-out: serum-deprived (surviving PC12 cells, MTT 570 nm); for protective effect on serum-deprived injury to PC12 cells: statement in words
# Protocol: (§1) Discard the original culture media from confluent monolayers of PC12 cells (simulated neuronal cells), add DMEM complete medium with 5% FBS, 5% horse serum gently beat upon the cells with a pipette to completely disperse them, inoculate 100 μl cell suspension at a density of […] per well to 96 hole plates treated with poly-lysine (0.1 mg/ml) in advance, culture for 24h. Divide the experimenting cells into control group, model group and dosing groups. Add complete medium to the control group. Model groups includes rotenone group and serum-deprived group, add rotenone to the corresponding modules with a final concentration of 4 μM rotenone to take effect on the cells for 48 h, add serum-deprived groups with serum-free DMEM medium to take effect on the cells for 48 h. Dosing groups also includes two groups, one using rotenone module as model, another using serum-deprived module as model, and both add in 10 μM test compounds during modeling. 48h later, add 10 μl 5 mg/ml MTT, subsequently discard the supernatant 4h later and add in 150 μl DMSO, measure 570 nm absorbance to represent the numbers of surviving cells.
# PC12 cells [3] = experiment: Neuroprotective activity assay, rotenone injury to PC12 cells (MTT); conditions: for viability at 10 µM: Rattus norvegicus, PC-12, 48 h, read-out: rotenone (surviving PC12 cells, MTT 570 nm); for protective effect on rotenone injury to PC12 cells: statement in words
# Protocol: as §1
# [4] = read-out: COX-B6 IC50, Vero cells, about 100TCID50, CPE, Reed-Muench
# [5] = Huh7.5 cells, 72 h, HCV RNA by RT-PCR, Reed-Muench
# [6] = MT-4 cells, HIV-1 III B 100TCID50, 96 h, P24 antigen
# [7] = 10 μM test compound, 48 h, Control 100.0 ± 9.2, Model 69.3 ± 4.1
# [8] = 10 μM test compound, 4 μM rotenone, 48 h, Control 100.0 ± 8.9, Model 73.2 ± 7.8
SMILES,IC50 [1] [µg/mL],anti-influenza virus activities compared with the lead compound cajanine [1],IC50 (Coxsackie virus B6; [4]) [µg/mL],EC50 (HCV; [5]) [µg/mL],anti-HCV viral activity (HCV),IC50 (HIV-1 III B virus; [6]) [µg/mL],anti-HIV viral activity (HIV-1 III B virus),viability at 10 µM (PC12 cells [2]; [7]) [%],protective effect on serum-deprived injury to PC12 cells (PC12 cells [2]),viability at 10 µM (PC12 cells [3]; [8]) [%],protective effect on rotenone injury to PC12 cells (PC12 cells [3]),IC50 (HIV-1 III B virus) [µg/mL],IC50 (Coxsackie virus B6; read-out: COX-B6 IC50) [µg/mL],EC50 (HCV) [µg/mL],viability at 10 µM (PC12 cells [2]) [%],viability at 10 µM (PC12 cells [3]) [%]
"COc1cc(/C=C/C=C/c2ccccc2)cc(O)c1CC=C(C)C [Compound 10m, 2-isopentenyl-3-methoxy-5-[(1′E,3′E)-phenylbutadiene-1′,3′-yl]phenol]",2.35,significantly stronger than the lead compound cajanine,6.12,1.75,"stronger anti-HIV, HCV viral activities",2.33,"stronger anti-HIV, HCV viral activities",89.3 ± 6.4,the strongest activities,85.3 ± 7.1,the strongest activities,,,,,
COc1ccc(/C=C/c2cc(OC)c(CC=C(C)C)c(O)c2C(=O)O)cc1 [Compound 1c],> 2.06,,1.6,2.69,"stronger anti-HIV, HCV viral activities",1.64,"stronger anti-HIV, HCV viral activities",16.1 ± 0.7,,77.2 ± 0.6,,,,,,
"COc1cc(/C=C/c2cc(OC)c(OC)c(OC)c2)cc(O)c1CC=C(C)C [Compound 10y, 2-isopentenyl-3-methoxy-5-[(E)-3,4,5-trimethoxystyryl]phenol]",0.13,significantly stronger than the lead compound cajanine,2.58,1.39,,1.66,,89.1 ± 5.4,,89.5 ± 2.5,,,,,,
"COc1cc(/C=C/Cc2ccccc2)cc(O)c1CC=C(C)C [Compound 10k, 2-isopentenyl-3′-methoxy-5-[(E)-3′-phenylpropen-1′-yl]phenol]",0.89,significantly stronger than the lead compound cajanine,> 2.06,0.99,,1.06,,85.6 ± 3.2,the strongest activities,84.6 ± 2.4,the strongest activities,,,,,
"COc1cc(/C=C/c2cccc(O)n2)c(C(=O)O)c(O)c1CC=C(C)C [1c′, 2-hydroxy-3-isopentenyl-4-methoxy-6-[(E)-2-(6-hydroxypyrid-2-yl)ethenyl]benzoic acid]",1.34,,2.56,1.3,,1.61,,85.9 ± 4.7,,85.6 ± 3.8,,,,,,
COc1cc(/C=C/c2ccccc2)c(C(=O)O)c(OC(=O)c2cnc[nH]2)c1CC=C(C)C [Compound 24q],1.98,,1.35,1.54,,2.85,,92.3 ± 1.2,the strongest activities,90.5 ± 5.6,the strongest activities,,,,,
"COC(=O)c1c(/C=C/c2ccccc2)cc(OC)cc1OC [Compound 6, methyl 2,4-dimethoxy-6-[(E)-styryl]benzoate]",> 2.05,,> 2.06,> 12.2,,,,62.4 ± 7,,74.4 ± 5.2,,> 2.06,,,,
"COc1cc(CCc2ccccc2)c(C(=O)O)c(O)c1CC=C(C)C [Compound 37, 2-hydroxy-3-isopentenyl-4-methoxy-6-phenethyl benzoic acid]",> 22.2,,> 2.05,12.2,,2.09,,29 ± 11.2,,60.4 ± 7.8,,,,,,
COc1cc(/C=C/c2ccccc2Cl)cc(O)c1CC=C(C)C [Compound 10b],> 0.23,,,,"stronger anti-HIV, HCV viral activities",,"stronger anti-HIV, HCV viral activities",,,,,0.3,6.38,0.59,74.8 ± 5.2,74.6 ± 6.3
"C/C(=C\c1cc(O)cc(O)c1)c1cc(O)cc(O)c1 [Compound 21h, 1,3-dihydroxy-5-[(E)-2-(3,5-dihydroxyphenyl)propen-1-yl]benzene]",5.84,,6.98,4.46,,5.28,,74.8 ± 2.6,,71.2 ± 3.8,,,,,,
COc1cc(/C=C/c2ccccc2)c(C(=O)NC2CCNCC2)c(O)c1CC=C(C)C [Compound 9f],0.31,,0.24,6.09,,0.14,,58.9 ± 2.6,,68.5 ± 4.9,,,,,,
"COc1cc(/C=C/c2ccccn2)cc(O)c1CC=C(C)C [Compound 10x, 2-isopentenyl-3-methoxy-5-[(E)-2-(pyrid-2-yl)ethenyl]phenol]",0.09,significantly stronger than the lead compound cajanine,0.42,0.93,,1.09,,78.9 ± 4.6,,78.9 ± 5.4,,,,,,
"COc1cc(/C=C/C2CCCCC2)c(C(=O)O)c(O)c1CC=C(C)C [Compound 1p, 2-hydroxy-3-isopentenyl-4-methoxy-6-[(E)-2-cyclohexyl-vinyl]benzoic acid]",8.62,,> 2.06,,,1.06,,81.2 ± 3.2,the strongest activities,82 ± 2.3,the strongest activities,,,8.62,,
COc1cc(/C=C/c2ccccc2)cc(O)c1C/C=C(\C)CCC=C(C)C [Compound 10o],> 2.06,,0.96,1.32,"stronger anti-HIV, HCV viral activities",0.96,"stronger anti-HIV, HCV viral activities",86.3 ± 3.8,the strongest activities,87.6 ± 5.4,the strongest activities,,,,,
"COc1cc(/C=C/c2cc(O)ccn2)c(C(=O)O)c(O)c1CC=C(C)C [Compound 1w, 2-hydroxy-3-isopentenyl-4-methoxy-6-[(E)-2-(4-hydroxypyrid-2-yl)ethenyl]benzoic acid]",0.19,significantly stronger than the lead compound cajanine,0.54,2.06,,2.87,,89.3 ± 5.4,the strongest activities,88.9 ± 2.5,the strongest activities,,,,,
